Data on 26 compounds can be found in ChEMBL document CHEMBL5137081, “N-Heterocyclic 3-Pyridyl Carboxamide Inhibitors of DHODH for the Treatment of Acute Myelogenous Leukemia” (J Med Chem, 2022).

≈ marks a conversion by molar mass, not a printed value. Bounds are passed on as bounds.

Data set [1] can be described thus: Metabolic stability in human liver microsome assessed as intrinsic clearance pretreated for 5 mins followed by NADPH addition and measured upto 60 mins by HPLC-MS/MS analysis. It is filed as ADME. The following applies: microsomes, 1.083 h, time < 65 min.
The nature of data set [2]: Solubility of compound at pH 7 by HPLC analysis. The following applies: buffer. It is filed as physicochemical.
Another data set concerns MDR1. The data set is described as follows: Efflux ratio of apparent permeability across basolateral to apical side over apical to basolateral side in dog MDCK-MDR1 cells. It is filed as ADME, cell-based, Canis lupus familiaris.
Data set [3] has as its target Dihydroorotate dehydrogenase (quinone), mitochondrial (Homo sapiens, UniProt Q02127). Description: Inhibition of His fused human DHODH expressed in Escherichia coli using DHO as substrate by DCIP absorbance based colorimetry assay.
For the next data set, the system named is MOLM-13. Description: Antiproliferative activity against human MOLM-13 cells incubated for 72 hrs by CellTiter-Glo assay. It counts as functional, cell-based. The note with it: MOLM-13, 72 h.
The nature of data set [4]: Stability in human hepatocytes assessed as intrinsic clearance measured per 10^6 cells incubated upto 120 mins by LC-MS/MS analysis. It is filed as ADME, cell-based, Hepatocyte. The note with it: 2 h.

Dihydroorotate dehydrogenase (quinone), mitochondrial, sequence (Q02127 whole entry, the tested form may be a part): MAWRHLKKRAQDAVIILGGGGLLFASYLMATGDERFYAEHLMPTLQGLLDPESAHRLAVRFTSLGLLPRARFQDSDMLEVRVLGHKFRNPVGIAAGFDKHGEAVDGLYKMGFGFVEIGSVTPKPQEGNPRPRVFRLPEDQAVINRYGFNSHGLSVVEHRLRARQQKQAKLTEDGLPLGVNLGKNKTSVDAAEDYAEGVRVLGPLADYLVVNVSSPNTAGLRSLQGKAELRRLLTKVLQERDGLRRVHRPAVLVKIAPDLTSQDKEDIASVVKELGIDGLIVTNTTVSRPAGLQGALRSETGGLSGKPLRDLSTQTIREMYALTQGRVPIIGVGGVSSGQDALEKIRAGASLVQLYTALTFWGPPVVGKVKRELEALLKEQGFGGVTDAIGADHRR

Regarding `CCn1c(CO)nn(-c2nc(O[C@@H](C)C(F)(F)F)c(C(=O)Nc3c(C)cnc(OC)c3C)cc2F)c1=O`, the CLH in data set [1] was under 7.7 µL/min/mg. In data set [2], this compound had a solubility of 373 µM (≈ 197 µg/mL). The efflux ratio in the data set with MDR1 was over 30. Besides, the IC50 in data set [3] was 0.56 nM; in the data set on MOLM-13 it was 2.1 nM.
For the compound `CCn1c(CO)nn(-c2nc(O[C@@H](C)C(F)(F)F)c(C(=O)Nc3ccnc(OC)c3Cl)cc2F)c1=O`, the CLH in data set [1] is under 7.7 µL/min/mg. For the same compound, the IC50 was determined as 11 nM in data set [3] and 13 nM in the data set on MOLM-13.
On to `CCn1c(CO)nn(-c2nc(OC3CCOC3)c(C(=O)Nc3c(F)cccc3Cl)cc2F)c1=O` (racemic), for which the IC50 in data set [3] turned out to be 32 nM; with MOLM-13, 25 nM.
Consider `CCn1c(CO)nn(-c2nc(O[C@@H](C)C(F)(F)F)c(C(=O)Nc3cccnc3Cl)cc2F)c1=O`, for which the CLH in data set [1] was under 8 µL/min/mg. The compound also had a solubility in data set [2] of under 4 µM. Further, the figures for the IC50 (in data set [3]; in the data set with MOLM-13) were 2.8 nM and 6.5 nM, respectively.
The corresponding values for `CCn1c(CO)nn(-c2nc(O[C@@H](C)C(F)(F)F)c(C(=O)Nc3ccncc3Cl)cc2F)c1=O` are 15 µL/min/mg, under 4 µM, 23 nM and 61 nM.
For the compound `CCn1c(CO)nn(-c2nc(NC(C)C)c(C(=O)Nc3c(F)cccc3Cl)cc2F)c1=O`, the IC50 in data set [3] stood at 3600 nM; in the data set with MOLM-13, 200 nM.
Regarding `CCn1c(CO)nn(-c2nc(O[C@@H](C)C(F)(F)F)c(C(=O)Nc3ccccc3F)cc2F)c1=O`, the CLH in data set [1] is under 8 µL/min/mg. The figures for the IC50 (in data set [3]; in the data set on MOLM-13) were 6.1 nM and 5 nM, respectively.
Consider `CCn1c(CO)nn(-c2nc(O[C@@H](C)C(F)(F)F)c(C(=O)Nc3c(C)ccnc3F)cc2F)c1=O`, for which the results for the CLH in data set [1] and in data set [4] were 14 µL/min/mg and 61 µL/min/1e6 cells, respectively. The solubility in data set [2] worked out at 61 µM (≈ 30.6 µg/mL). In addition, the IC50 in data set [3] was 2.4 nM; with MOLM-13, 5 nM.
As to `CCn1c(CO)nn(-c2nc(O[C@@H](C)C(F)(F)F)c(C(=O)Nc3c(F)cccc3Cl)cc2F)c1=O`, the CLH in data set [1] was 10 µL/min/mg. For the same compound, the solubility in data set [2] was under 4 µM. Further, the IC50 in data set [3] worked out at 0.2 nM; in the data set with MOLM-13, 0.16 nM.
The matching figures for `CCn1c(CO)nn(-c2nc(O[C@@H](C)C(F)(F)F)c(C(=O)Nc3c(F)cnc(OC)c3Cl)cc2F)c1=O`: under 7.7 µL/min/mg, under 4 µM, 1.1 nM and 1.4 nM.
Turning to `CCn1c(CO)nn(-c2nc(O[C@@H](C)C(F)(F)F)c(C(=O)Nc3c(Cl)ccnc3C)cc2F)c1=O`, the figures for the CLH in data set [1] and in data set [4] were under 7.7 µL/min/mg and over 400 µL/min/1e6 cells, respectively. The solubility in data set [2] is over 400 µM. In addition, the IC50 in data set [3] is 1.9 nM; with MOLM-13, 5.3 nM.
As for `CCn1c(CO)nn(-c2nc(O[C@@H](C)C(F)(F)F)c(C(=O)Nc3ncccc3Cl)cc2F)c1=O`, the CLH in data set [1] worked out at 9.1 µL/min/mg. The compound also had a solubility in data set [2] of 98 µM (≈ 49.5 µg/mL). The IC50 in data set [3] is 5.2 nM; with MOLM-13, 6.9 nM.
Consider `CCn1c(CO)nn(-c2nc(O[C@@H](C)C(F)(F)F)c(C(=O)Nc3cnccc3Cl)cc2F)c1=O`, for which, in data set [1], the CLH came to 45 µL/min/mg. In addition, the figures for the concentration for half-maximal inhibition (IC50) (in data set [3]; with MOLM-13) were 4.7 nM and 9.3 nM, respectively.
As for `CCn1c(CO)nn(-c2nc(OC(C)C)c(C(=O)Nc3c(F)cccc3Cl)cc2F)c1=O`, the CLH in data set [1] was under 7.7 µL/min/mg. Moreover, in data set [2], the solubility was 4 µM (≈ 1.87 µg/mL). Moreover, the values for the IC50 (in data set [3]; in the data set on MOLM-13) were 0.5 nM and 0.2 nM, respectively.
Turning to `CCn1c(CO)nn(-c2nc(O[C@@H](C)C(F)(F)F)c(C(=O)Nc3c(F)cncc3Cl)cc2F)c1=O`, the half-maximal inhibitory concentration (IC50) in data set [3] was 2.3 nM; with MOLM-13, 3.6 nM.
For `CCn1c(CO)nn(-c2nc(O[C@@H](C)C(F)(F)F)c(C(=O)Nc3cc(C)cnc3Cl)cc2F)c1=O`, the half-inhibitory concentration (IC50) in data set [3] is 5.7 nM; in the data set on MOLM-13, 50 nM.
Consider `CCn1c(CO)nn(-c2nc(O[C@@H](C)C(F)(F)F)c(C(=O)Nc3c(Cl)ccnc3OC)cc2F)c1=O`, for which the figures for the CLH in data set [1] and in data set [4] were 10 µL/min/mg and 51 µL/min/1e6 cells, respectively. In data set [2], the solubility is 51 µM (≈ 27.3 µg/mL). Further, the IC50 (in data set [3]; in the data set with MOLM-13) was 0.3 nM each time.
In the case of `CCn1c(CO)nn(-c2nc(O[C@@H](C)C(F)(F)F)c(C(=O)Nc3c(C)ccnc3C(F)F)cc2F)c1=O`, the figures for the CLH in data set [1] and in data set [4] were under 7.7 µL/min/mg and over 400 µL/min/1e6 cells, respectively. The same compound gave a solubility in data set [2] of over 400 µM. Besides, the concentration for half-maximal inhibition (IC50) is 2.4 nM in data set [3] and 4 nM in the data set with MOLM-13.
For `CCn1c(CO)nn(-c2nc(O[C@@H](C)C(F)(F)F)c(C(=O)Nc3ccc(C)nc3Cl)cc2F)c1=O`, the IC50 in data set [3] was 14 nM; in the data set on MOLM-13, 13 nM.
In data set [3], `CCC(C)Nc1nccc(-c2cnc3sc(C)cn3c2=O)n1` (stereo not drawn) came in with an IC50 of 1400 nM.
As to `CCn1c(CO)nn(-c2nc(O[C@@H](C)C(F)(F)F)c(C(=O)Nc3c(F)cnc(OC)c3C#N)cc2F)c1=O`, in the data set on MDR1, the efflux ratio is over 30. In addition, the IC50 is 16 nM in data set [3] and 1 nM in the data set with MOLM-13.
Regarding `CCn1c(CO)nn(-c2nc(SC(C)C)c(C(=O)Nc3c(F)cccc3Cl)cc2F)c1=O`, in data set [1], the CLH was 15 µL/min/mg. For the same compound, the IC50 was 302 nM in data set [3] and 0.19 nM with MOLM-13.
Turning to `CCn1c(CO)nn(-c2nc(O[C@@H](C)C(F)(F)F)c(C(=O)Nc3c(Cl)ccnc3Cl)cc2F)c1=O`, the CLH in data set [1] worked out at 14 µL/min/mg; in data set [4], 381 µL/min/1e6 cells. In data set [2], this compound registered a solubility of 381 µM (≈ 205 µg/mL). The figures for the IC50 (in data set [3]; with MOLM-13) were 0.6 nM and 0.7 nM, respectively.
For `CCn1c(CO)nn(-c2nc(O[C@@H](C)C(F)(F)F)c(C(=O)Nc3c(C)cc(OC)nc3Cl)cc2F)c1=O`, in the data set with MDR1, the efflux ratio was over 30. In addition, the figures for the IC50 (in data set [3]; with MOLM-13) were 0.8 nM and 3 nM, respectively.
Take `CCn1c(CO)nn(-c2nc(O[C@@H](C)C(F)(F)F)c(C(=O)Nc3cc(OC)ncc3C)cc2F)c1=O`: the efflux ratio in the data set on MDR1 is 17. Further, the values for the IC50 (in data set [3]; in the data set with MOLM-13) were 10 nM and 26 nM, respectively.
For the compound `CCn1c(CO)nn(-c2nc(OC3CC(F)(F)C3(F)F)c(C(=O)Nc3c(F)cccc3Cl)cc2F)c1=O` (stereo not drawn), the IC50 in data set [3] amounted to 22 nM; with MOLM-13, 20 nM.
